Experimental data published in US11236112B2 (GENFLEET THERAPEUTICS (SHANGHAI) INC., priority 2017, dated 2022).

Experiments:
[1] = Solubility of different salt types in biological vehicle (SGF, FeSSIF, FaSSIF), HPLC; assay type: physicochemical; conditions: 37° C.; for pH value: supernatant
Description: 1 ml of biological vehicle solution (FaSSIF, FeSSIF and SGF) was pipetted respectively into a 1.5-ml glass bottle, and then added to the above-mentioned solution at a gradient of 2 mg until 10 mg or the mixture was saturated. The mixture was prepared in 2 parts in parallel, and then shaken at 37° C. Samples were taken after 4 hours and 24 hours, respectively. The samples taken were centrifuged quickly, and the supernatant was measured for pH value and diluted with a diluent to a suitable multiple, and then the concentration was determined by HPLC.

[2] = High-temperature stability test (60° C., open container); assay type: physicochemical
[3] = High-humidity stability test (40° C./75% humidity, open); assay type: physicochemical
[4] = Hygroscopicity by dynamic vapor sorption (DVS); assay type: physicochemical; conditions: 25° C./80% RH
Description: In the present invention, the dynamic vapor sorption (DVS) is determined by using the following method: instrument model: SMS DVS Advantage dynamic vapor sorption instrument
Test condition: place 10-15 mg of sample in a DVS sample disk for testing.
The detailed DVS parameters are as follows: […]
balance: dm/dt=0.01%/min (minimum: 10 min; maximum: 180 min) drying: dry for 120 min at 0% RH
RH (%) test step range: 0%-90%-0%
The classification of hygroscopicity evaluation is as follows:
1. Experimental material: SMS DVS Advantage dynamic vapor sorption instrument
2. Experimental method: an appropriate amount of the crystal form B of the compound of formula (II) was placed in a DVS sample disk for DVS analysis.

TGF-βRI = target: T1, TGF-βRI (Homo sapiens, UniProt P36897); test: TGFβ-RI receptor binding activity screening in vitro (enzyme activity, IC50)
T1 sequence (P36897 34-503): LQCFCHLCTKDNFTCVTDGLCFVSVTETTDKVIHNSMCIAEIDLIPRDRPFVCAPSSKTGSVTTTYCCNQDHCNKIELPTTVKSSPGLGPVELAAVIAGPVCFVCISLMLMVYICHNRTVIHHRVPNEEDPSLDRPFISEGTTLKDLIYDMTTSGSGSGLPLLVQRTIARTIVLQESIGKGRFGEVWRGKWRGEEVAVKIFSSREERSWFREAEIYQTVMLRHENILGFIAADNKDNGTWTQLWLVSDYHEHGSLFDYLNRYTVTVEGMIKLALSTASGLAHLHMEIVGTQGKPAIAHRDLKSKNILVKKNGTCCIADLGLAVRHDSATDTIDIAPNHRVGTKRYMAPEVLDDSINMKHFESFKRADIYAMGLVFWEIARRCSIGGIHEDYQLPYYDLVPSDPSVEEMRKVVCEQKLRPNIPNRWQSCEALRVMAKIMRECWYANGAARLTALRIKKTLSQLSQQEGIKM

[5] = Approximate solubility in pure water; assay type: physicochemical; conditions: thermodynamic from solid, room temperature, 2 mg sample, read-out: Approximate solubility S
Description: 2 mg of the sample of each compound was weighed and added to a 1.5-ml glass vial, and a certain volume of pure water was added with a pipette, and ultrasonic solubilization was performed appropriately. The study was conducted at room temperature and tested for solubilization.

liver cancer patients = conditions: phase 2 clinical trial, after treatment; cited from earlier work

## CS(=O)(=O)O.Cc1cccc(-c2nn3c(c2-c2ccc4ncnn4c2/C=C/C(N)=O)CCC3)n1
[1]; FaSSIF, 4 hours
  Concentration: 5159 µg/mL
  State: soluble
  pH value: 4.16
[1]; FaSSIF, 24 hours
  Concentration: 3704 µg/mL
  State: turbid
  pH value: 3.71
[1]; FeSSIF, 4 hours
  Concentration: 852 µg/mL
  State: turbid
  pH value: 4.58
[1]; FeSSIF, 24 hours
  Concentration: 925 µg/mL
  State: turbid
  pH value: 4.60
[1]; SGF, 4 hours
  Concentration: 5103 µg/mL
  State: soluble
  pH value: 2.08
[1]; SGF, 24 hours
  Concentration: 5163 µg/mL
  State: soluble
  pH value: 2.14

## Cc1cccc(-c2nn3c(c2-c2ccc4ncnn4c2/C=C/C(N)=O)CCC3)n1
[2]; day 0
  Content: 99.0%
  Study on crystal form: Crystal form A
  Total impurities: 0.57%
[2]; day 30
  Content: 97.5%
  Study on crystal form: Crystal form A
  Total impurities: 0.56%
[2]; day 60
  Content: 100.0%
  Study on crystal form: Crystal form A
  Total impurities: 0.58%
[2]; day 90
  Content: 99.9%
  Study on crystal form: Crystal form A
  Total impurities: 0.55%
[2]; up to 90 days
  Stability under high temperature conditions (conclusion): Conclusion: The high-temperature stability test shows that crystal form A of the compound of formula (I) has good stability under high temperature conditions.
[3]; day 0
  Content: 99.0%
  Total impurities: 0.57%
[3]; day 30
  Content: 100.6%
  Total impurities: 0.57%
[3]; day 60
  Content: 101.1%
  Total impurities: 0.58%
[3]; day 90
  Content: 100.4%
  Total impurities: 0.58%
[3]; up to 90 days
  Stability under high humidity conditions (conclusion): Conclusion: The high-humidity stability test shows that the crystal form A of the compound of formula (I) has good stability under high humidity conditions.

## Cc1ccc(S(=O)(=O)O)cc1.Cc1cccc(-c2nn3c(c2-c2ccc4ncnn4c2/C=C/C(N)=O)CCC3)n1
[4]
  Classification of hygroscopicity: slightly hygroscopic
  Hygroscopic weight gain ΔW: 0.673%

## Cc1cccc(-c2nn3c(c2-c2ccc4ncnn4c2/C=C/C(N)=O)CCC3)n1 [Compound of formula (I)]
TGF-βRI
  IC50: 40 nM
[1]; FaSSIF, 4 hours
  Concentration: 352 µg/mL
  State: turbid
  pH value: 6.45
[1]; FaSSIF, 24 hours
  Concentration: 421 µg/mL
  State: turbid
  pH value: 6.42
[1]; FeSSIF, 4 hours
  Concentration: 565 µg/mL
  State: turbid
  pH value: 4.97
[1]; FeSSIF, 24 hours
  Concentration: 637 µg/mL
  State: turbid
  pH value: 4.95
[1]; SGF, 4 hours
  Concentration: 1997 µg/mL
  State: soluble
  pH value: 2.37
[1]; SGF, 24 hours
  Concentration: 1994 µg/mL
  State: soluble
  pH value: 2.43
[5]
  solubility: < 1.9 mg/mL

## Cc1ccc(S(=O)(=O)O)cc1.Cc1cccc(-c2nn3c(c2-c2ccc4ncnn4c2/C=C/C(N)=O)CCC3)n1 [Compound of formula (II)]
[1]; FaSSIF, 4 hours
  Concentration: 10150 µg/mL
  State: clear
  pH value: 3.15
[1]; FaSSIF, 24 hours
  Concentration: 10720 µg/mL
  State: clear
  pH value: 3.13
[1]; FeSSIF, 4 hours
  Concentration: 10840 µg/mL
  State: clear
  pH value: 1.89
[1]; FeSSIF, 24 hours
  Concentration: 10580 µg/mL
  State: clear
  pH value: 1.87
[1]; SGF, 4 hours
  Concentration: 1610 µg/mL
  State: Suspension
  pH value: 3.45
[1]; SGF, 24 hours
  Concentration: 1470 µg/mL
  State: Suspension
  pH value: 4.26
[5]
  solubility: 49 to 98 mg/mL

## Cc1cccc(-c2nn3c(c2-c2ccc4ncnn4c2/C=C/C(N)=O)CCC3)n1.Cl [Hydrochloride]
[1]; FaSSIF, 4 hours
  Concentration: 4378 µg/mL
  State: soluble
  pH value: 3.96
[1]; FaSSIF, 24 hours
  Concentration: 4195 µg/mL
  State: soluble
  pH value: 3.97
[1]; FeSSIF, 4 hours
  Concentration: 1028 µg/mL
  State: turbid
  pH value: 4.52
[1]; FeSSIF, 24 hours
  Concentration: 1065 µg/mL
  State: turbid
  pH value: 4.52
[1]; SGF, 4 hours
  Concentration: 4343 µg/mL
  State: soluble
  pH value: 2.04
[1]; SGF, 24 hours
  Concentration: 4427 µg/mL
  State: soluble
  pH value: 2.05

## Cc1cccc(-c2nn3c(c2-c2ccnc4ccc(C(N)=O)cc24)CCC3)n1 [LY2157299, Galunisertib]
Liver cancer patients
  Patients with a decrease in serum alpha-fetoprotein (AFP) levels by at least 20%: approximately 23%

## Cc1cccc(-c2nn3c(c2-c2ccc4ncnn4c2/C=C/C(N)=O)CCC3)n1 [Sulphate]
[1]; FaSSIF, 4 hours
  Concentration: 4998 µg/mL
  State: soluble
  pH value: 2.44
[1]; FaSSIF, 24 hours
  Concentration: 5000 µg/mL
  State: soluble
  pH value: 2.50
[1]; FeSSIF, 4 hours
  Concentration: 1530 µg/mL
  State: turbid
  pH value: 4.22
[1]; FeSSIF, 24 hours
  Concentration: 1504 µg/mL
  State: turbid
  pH value: 4.21
[1]; SGF, 4 hours
  Concentration: 4885 µg/mL
  State: soluble
  pH value: 1.77
[1]; SGF, 24 hours
  Concentration: 4952 µg/mL
  State: soluble
  pH value: 1.84
